The subject of this assay is nude mice, LX-1 lung xenograft intrarenal, tumor weight T/C. The assay is described as follows: NCI In Vivo Anticancer Drug Screen. Data for tumor model Human Lung LX-1 Xenograft (intrarenal inoculation) in NU/NU Swiss (nude) mice. Conditions: endpoint: mean tumor weight change, vehicle: saline, higher = larger tumour. Summed up:
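Antitumor effect is expressed as a ratio: the mean tumor measurement of the drug-treated group relative to that of the vehicle-dosed control group.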

SMILES strings stand for the structures. Where “and” joins values, the source holds several entries; their conditions need not be identical. Equal values may be shown once. Records with an inconclusive call do not appear.

On to `CN1c2c(nc(N)[nH]c2=O)NCC1CCNc1ccc(C(=O)NC(CCC(=O)O)C(=O)O)cc1` (centres undefined), for which the T/C was 82 % of control (dose: 100.0 mg/kg/injection, schedule: Q01DX010 (sc)); 36 % of control and 41 % of control (dose: 200.0 mg/kg/injection, schedule: Q01DX010 (sc)); 11 % of control and 36 % of control (dose: 400.0 mg/kg/injection, schedule: Q01DX010 (sc)); 11 % of control (dose: 800.0 mg/kg/injection, schedule: Q01DX010 (sc)); 27 % of control (dose: 1600.0 mg/kg/injection, schedule: Q01DX010 (sc)).

Turning to `NC(=O)c1[nH]nc(C2OC(CO)C(O)C2O)c1O` (centres undefined), the T/C runs as follows: (dose: 0.62 mg/kg/injection, schedule: Q04DX003 (sc)) 77 % of control; (dose: 1.25 mg/kg/injection, schedule: Q04DX003 (sc)) 65 % of control; (dose: 2.5 mg/kg/injection, schedule: Q04DX003 (sc)) 109 % of control; (dose: 5.0 mg/kg/injection, schedule: Q04DX003 (sc)) 78 % of control.
